Publication PMC3463507 (ChemMedChem, 2012)
Like-named read-outs stand apart in the source and are kept apart here.

Columns and labels:
[1] = biological target: T1, BaDHPS (Bacillus anthracis, UniProt Q81VW8); assay: biochemical; assay type: biochemical; details: for inhibition at 250 µM: read-out: Enzyme Inhibition Activity% @250μM
[2] = biological target: T1, BaDHPS; assay: biochemical; assay type: binding; details: for SPR kd: 25 °C; for kon: read-out: SPR ka
[3] = biological target: T1, BaDHPS; assay type: binding; details: 25 °C, pH 7.6

T1 sequence (Q81VW8 1-280): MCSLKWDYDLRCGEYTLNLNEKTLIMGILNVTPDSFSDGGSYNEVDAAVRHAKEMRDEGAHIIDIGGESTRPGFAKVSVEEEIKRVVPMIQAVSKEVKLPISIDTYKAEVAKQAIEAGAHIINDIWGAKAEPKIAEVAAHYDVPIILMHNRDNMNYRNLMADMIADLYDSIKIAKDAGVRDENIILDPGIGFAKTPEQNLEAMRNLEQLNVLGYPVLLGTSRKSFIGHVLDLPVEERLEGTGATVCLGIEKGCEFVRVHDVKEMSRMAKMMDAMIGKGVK

| SMILES | IC50 [1] | inhibition at 250 µM [1] [%] | SPR kd [2] | Kd ([2]; SPR KD) [µM] | Kd ([2]; SPR KD(eq)) [µM] | kon [2] [M⁻¹ s⁻¹] | ITC N (stoichiometry of the interaction) [3] | ITC ΔG [3] [kcal/mol] | ITC ΔH [3] [kcal/mol] | ITC −TΔS [3] [kcal/mol] | Kd ([2]; read-out: SPR KD) [µM] | Kd ([2]; read-out: SPR KD(eq)) [µM] |
| --- | --- | --- | --- | --- | --- | --- | --- | --- | --- | --- | --- | --- |
| COC(=O)CCc1n[nH]c2nc(N)[nH]c(=O)c2c1=O [Compound 22, Methyl 3-(7-amino-4,5-dioxo-1,4,5,6-tetrahydropyrimido[4,5-c]pyridazin-3-yl)propanoate] | 260 µM | 33 |  |  |  |  |  |  |  |  |  |  |
| Cn1nc(CCC(=O)O)c(=O)c2c(=O)[nH]c(N)nc21 [Compound 18, 3-(7-Amino-1-methyl-4,5-dioxo-1,4,5,6-tetrahydropyrimido[4,5-c]pyridazin-3-yl)propanoic acid] |  | 65 |  |  |  |  |  |  |  |  |  |  |
| CC(CC(=O)O)c1nn(C)c2nc(N)[nH]c(=O)c2c1=O (stereo not shown) [Compound 17, 3-(7-Amino-1-methyl-4,5-dioxo-1,4,5,6-tetrahydropyrimido[4,5-c]pyridazin-3-yl)butanoic acid] | 145 µM | 52.5 |  |  |  |  |  |  |  |  |  |  |
| Cn1nc(C(=O)O)c(=O)c2c(=O)[nH]c(N)nc21 [Compound 5, 7-Amino-1-methyl-4,5-dioxo-1,4,5,6-tetrahydropyrimido[4,5-c]pyridazine-3-carboxylic acid] | no detectable IC50 value | 32.4 |  |  |  |  |  |  |  |  |  |  |
| Cn1nc(CC(=O)O)c(=O)c2c(=O)[nH]c(N)nc21 [Compound 16, 2-(7-Amino-1-methyl-4,5-dioxo-1,4,5,6-tetrahydropyrimido[4,5-c]pyridazin-3-yl)acetic acid] | 32 µM | 96 | 6.94(6) × 10^−2 s^−1 | 0.203 | 0.19 | 342000 |  |  |  |  |  |  |
| Nc1nc2[nH]nc(CC(=O)O)c(=O)c2c(=O)[nH]1 [Compound 23, 2-(7-Amino-4,5-dioxo-1,4,5,6-tetrahydropyrimido[4,5-c]pyridazin-3-yl)acetic acid] | 18 µM | 91 | 4.35(3) × 10^−2 s^−1 | 0.104 | 0.11 | 419000 |  |  |  |  |  |  |
| Nc1nc2[nH]nc(CCC(=O)O)c(=O)c2c(=O)[nH]1 [Compound 25, 3-(7-Amino-4,5-dioxo-1,4,5,6-tetrahydropyrimido[4,5-c]pyridazin-3-yl)propanoic acid] | 36 µM | 91.8 | 3.14(1) × 10^−1 s^−1 |  |  | 442000 | 0.7 | -8.94 | -10.4 | 1.46 | 0.71 | 0.713 |
| CC(CC(=O)O)c1n[nH]c2nc(N)[nH]c(=O)c2c1=O (stereo not shown) [Compound 24, 3-(7-Amino-4,5-dioxo-1,4,5,6-tetrahydropyrimido[4,5-c]pyridazin-3-yl)butanoic acid] | 57 µM | 75.8 | 3.39(1) × 10^−1 s^−1 |  |  | 643000 | 0.8 | -8.6 | -7.5 | -1.1 |  |  |
| CC(C(=O)O)c1n[nH]c2nc(N)[nH]c(=O)c2c1=O (stereo not shown) [Compound 19, 2-(7-Amino-4,5-dioxo-1,4,5,6-tetrahydropyrimido[4,5-c]pyridazin-3-yl)propanoic acid] |  | 95.3 | 4.39(3) × 10^−2 s^−1 | 0.12 | 0.123 | 366000 | 0.9 | -9.65 | -8.7 | -0.95 |  |  |
